The results in this text go back to EP4745134A1 (Jiangsu Yahong Meditech Co., Ltd., priority 2023, dated 2025).

A word on the pIC50: it is −log10 of the IC50, conventionally taken in molar units.

pIC50: −log10 of the molar value. Where two headings read alike, the source gives them in different places.

The test system of one assay is HCT116-WT cells. The assay is described as follows: Inhibitory activity against cell proliferation (CellTiter Glo, 6 days), HCT116-WT. As to conditions: 144 h, HCT116-WT cells, 6 days, CellTiter Glo; read-out: HCT116-WT IC50. Format: cell-based. In short, it runs like this: (§1)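 Following overnight attachment of 250 cells per well in McCoy's 5A medium with 10% FBS, compounds spanning 8 concentrations (4-fold, top 10000 nM) were applied for 6 days. Growth inhibition IC50 was derived from luminescent ATP signal.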
A general note: Cellular ATP, detected with luciferase, serves as a proxy for viable cell number.

A further assay concerns HCT116 MTAP KO cells. The assay is described as follows: Inhibitory activity against cell proliferation (CellTiter Glo, 6 days), HCT116 MTAP KO. Format: cell-based. The conditions noted are these: for pIC50: Homo sapiens, HCT-116, 144 h, HCT116 MTAP KO cells, 6 days, CellTiter Glo, read-out: HCT116 MTAP KO IC50; for Selectivity HCT 116-WT/ HCT116 MTAP KO: ratio of IC50 HCT116-WT / HCT116 MTAP KO. In a few lines: as §1

A further assay concerns the target PRMT5-MTA (Homo sapiens, UniProt O14744). The assay is described as follows: Enzymatic inhibitory activity against PRMT5-MTA (AlphaScreen). Type of assay: biochemical. In a few lines: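 PRMT5/[…] (1 nM) was preincubated for 30 min at room temperature with 1 µM […] and 2.5 µM SAM, then exposed to compound (10-point, 3-fold from 1000 nM) for 15 min at 23 °C. Histone H4 substrate (5 nM) was added and reacted for 45 min at 23 °C. Symmetric dimethyl-R3 H4 was detected by AlphaScreen and IC50 calculated.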
(In Alpha technology, singlet oxygen from a donor bead excites a nearby acceptor bead.)

PRMT5-MTA, sequence (O14744 whole entry): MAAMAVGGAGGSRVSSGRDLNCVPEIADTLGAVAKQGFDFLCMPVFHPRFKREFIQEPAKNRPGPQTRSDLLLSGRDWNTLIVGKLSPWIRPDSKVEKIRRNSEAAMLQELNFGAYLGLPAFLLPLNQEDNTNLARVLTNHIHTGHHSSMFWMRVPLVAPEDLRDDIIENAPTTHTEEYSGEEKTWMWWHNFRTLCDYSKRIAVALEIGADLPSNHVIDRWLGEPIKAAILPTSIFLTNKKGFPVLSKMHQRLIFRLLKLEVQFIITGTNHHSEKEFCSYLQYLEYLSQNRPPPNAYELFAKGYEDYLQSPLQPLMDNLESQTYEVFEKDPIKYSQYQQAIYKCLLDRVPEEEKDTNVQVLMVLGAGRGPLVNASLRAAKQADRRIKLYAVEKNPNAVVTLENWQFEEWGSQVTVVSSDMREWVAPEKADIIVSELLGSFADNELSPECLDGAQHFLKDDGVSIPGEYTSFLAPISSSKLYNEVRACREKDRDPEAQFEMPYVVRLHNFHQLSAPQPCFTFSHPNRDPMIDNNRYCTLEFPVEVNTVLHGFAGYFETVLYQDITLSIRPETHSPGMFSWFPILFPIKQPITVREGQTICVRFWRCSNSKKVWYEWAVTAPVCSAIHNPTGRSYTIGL
PRMT5-MTA, sequence (Q9BQA1 whole entry partner): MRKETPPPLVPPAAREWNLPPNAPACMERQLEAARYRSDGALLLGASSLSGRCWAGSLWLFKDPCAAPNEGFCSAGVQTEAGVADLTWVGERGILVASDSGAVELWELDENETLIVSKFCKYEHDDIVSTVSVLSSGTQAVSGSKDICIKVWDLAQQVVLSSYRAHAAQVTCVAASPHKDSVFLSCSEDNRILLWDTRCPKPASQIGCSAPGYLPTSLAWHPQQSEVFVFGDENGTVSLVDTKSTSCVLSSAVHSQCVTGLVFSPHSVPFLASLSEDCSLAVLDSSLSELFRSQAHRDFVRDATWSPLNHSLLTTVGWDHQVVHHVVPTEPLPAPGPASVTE

For the molecule `Cc1cc2cc(C(=O)N(Cc3ccc4ncccc4n3)N(C)c3ncccn3)ccc2nc1N` [Compound 283, N-((1,5-naphthyridin-2-yl)methyl)-2-ami no-N',3-dimethyl-N'-(pyrimidin-2-yl)qui noline-6-carbohydrazide], the pIC50 was 5.57 in the assay on HCT116-WT cells, 6.61 with HCT116 MTAP KO cells and 8.77 on PRMT5-MTA (read-out: IC50). Besides, the “Selectivity HCT 116-WT/ HCT116 MTAP KO” value with HCT116 MTAP KO cells turned out to be 11.11.

For `CCOc1ccc(CN(C(=O)c2ccc3nc(N)c(C)cc3c2)N(C)c2ncccn2)nc1` [Example 264, 2-amino-N-((5-ethoxypyridin-2-yl)methyl)-N',3-dimethyl-N'-(pyrimidin-2-yl)quin oline-6-carbohydrazide], the pIC50 in the assay on HCT116-WT cells is 5.61; in the assay on HCT116 MTAP KO cells it was 6.86; at PRMT5-MTA (read-out: IC50), 9.00. The “Selectivity HCT 116-WT/ HCT116 MTAP KO” value with HCT116 MTAP KO cells worked out at 17.97.

Take `COC1CN(C(=O)c2cc3c(cc2C)nc(N)c2cnn(C)c23)N(c2ccccc2F)C1` (centres unmarked) [Example 436]: the values for the pIC50 with HCT116-WT cells, in the assay on HCT116 MTAP KO cells and on PRMT5-MTA were 6.13, 7.57 and 8.32, respectively. In addition, the “Selectivity HCT 116-WT/ HCT116 MTAP KO” value with HCT116 MTAP KO cells is 27.19.

For `Cc1cc2cc(C(=O)N(Cc3ccc(-c4ccn(C)n4)cn3)N(C)c3ncccn3)ccc2nc1N` [Example 168, 2-amino-N',3-dimethyl-N-((5-(1-methyl-1H-pyrazol-3-yl)pyridin-2-yl)methyl)-N'-(pyrimidin-2-yl)quinoline-6-carbohydrazide], the pIC50 with HCT116-WT cells is 5.59; in the assay with HCT116 MTAP KO cells, 6.71; at PRMT5-MTA (read-out: IC50), 8.59. Further, the “Selectivity HCT 116-WT/ HCT116 MTAP KO” value with HCT116 MTAP KO cells is recorded as 13.26.

In the case of `Cc1cc2cc(C(=O)N(Cc3ccc(-c4cnn(C(F)(F)F)c4)cn3)N(c3ncccn3)C3CC3)ccc2nc1N` [Example 216, 2-amino-N'-cyclopropyl-3-methyl-N'-(pyrimidin-2-yl)-N-((5-(1-(trifluoromethyl)-1H-pyrazol-4-yl)pyridin-2-yl)methyl)qui noline-6-carbohydrazide], the pIC50 in the assay with HCT116-WT cells was 6.20; in the assay with HCT116 MTAP KO cells, 7.64; on PRMT5-MTA (read-out: IC50), 8.48. The “Selectivity HCT 116-WT/ HCT116 MTAP KO” value in the assay on HCT116 MTAP KO cells is listed as 27.26.

`Cc1cc2nc(N)c3cnn(C)c3c2cc1C(=O)N1CC(C)(C)CN1c1ncccc1F` [Example 330, (4-amino-1,7-dimethyl-1H-pyrazolo[4,3-c]quinolin-8-yl)(2-(3-fluoropyridin-2-yl)-4,4-dimethylpyrazolidin-1-yl)methanone]: the pIC50 with HCT116-WT cells is 6.22; with HCT116 MTAP KO cells it was 7.62; on PRMT5-MTA (read-out: IC50), 7.89. In the assay on HCT116 MTAP KO cells, the “Selectivity HCT 116-WT/ HCT116 MTAP KO” value is on record as 25.13.

Regarding `Cc1cc2nc(N)c3cnn(C)c3c2cc1C(=O)N1CC(C)CN1c1cccc(Cl)n1` (centres unmarked) [Example 403, (4-amino-1,7-dimethyl-1H-pyrazolo[4,3-c]quinolin-8-yl)(2-(6-chloropyridin-2-yl)-4-methylpyrazolidin-1-yl)methanone], the values for the pIC50 in the assay with HCT116-WT cells, in the assay on HCT116 MTAP KO cells and on PRMT5-MTA (read-out: IC50) were 6.56, 7.85 and 8.42, respectively. Besides, the “Selectivity HCT 116-WT/ HCT116 MTAP KO” value in the assay on HCT116 MTAP KO cells was 19.79.

Turning to `Cc1cc2cc(C(=O)N(Cc3ccc(-c4cncs4)cn3)N(c3ncccn3)C3CC3)ccc2nc1N` [Example 215, 2-amino-N'-cyclopropyl-3-methyl-N'-(pyrimidin-2-yl)-N-((5-(thiazol-5-yl)pyridin-2-yl)methyl)quinoline-6-carbohydrazide], the values for the pIC50 with HCT116-WT cells, in the assay with HCT116 MTAP KO cells and at PRMT5-MTA (read-out: IC50) were 6.75, 8.15 and 8.28, respectively. The “Selectivity HCT 116-WT/ HCT116 MTAP KO” value in the assay with HCT116 MTAP KO cells is listed as 25.07.

On to `Cc1cc2nc(N)c3cnn(C)c3c2cc1C(=O)N1CC(C)CN1c1cccc(C2CC2)n1` (centres unmarked) [Example 405, (4-amino-1,7-dimethyl-1H-pyrazolo[4,3-c]quinolin-8-yl)(2-(6-cyclopropylpyridin-2-yl) -4-methylpyrazolidin-1-yl)methanone], for which the figures for the pIC50 in the assay on HCT116-WT cells, in the assay with HCT116 MTAP KO cells and at PRMT5-MTA (read-out: IC50) were 6.03, 7.54 and 7.91, respectively. Further, in the assay with HCT116 MTAP KO cells, the “Selectivity HCT 116-WT/ HCT116 MTAP KO” value was 31.93.

Consider `Cc1cc2cc(C(=O)N(Cc3ccc(C(F)(F)F)cn3)N(C)c3ncc4cc[nH]c4n3)ccc2nc1N` [Example 119, 2-amino-N',3-dimethyl-N'-(7H-pyrrolo[2,3-d]pyrimidin-2-yl)-N-((5-(trifluoromethyl)pyridin-2-yl)methyl)quinoline-6-carbohydrazide], for which the pIC50 was 5.74 with HCT116-WT cells, 7.05 in the assay on HCT116 MTAP KO cells and 8.64 at PRMT5-MTA (read-out: IC50). For the same molecule, in the assay with HCT116 MTAP KO cells, the “Selectivity HCT 116-WT/ HCT116 MTAP KO” value came to 20.13.

For the molecule `Cc1cc2cc(C(=O)N(Cc3ccc(-c4cnc(C(F)(F)F)s4)cn3)N(C)c3ncccn3)ccc2nc1N` [Example 244, 2-amino-N',3-dimethyl-N'-(pyrimidin-2-yl)-N-((5-(2-(trifluoromethyl)thiazol-5-yl)pyridin-2-yl)methyl)quinoline-6-carbohydrazide], the pIC50 is 6.24 with HCT116-WT cells, 7.39 in the assay on HCT116 MTAP KO cells and 8.38 on PRMT5-MTA (read-out: IC50). The “Selectivity HCT 116-WT/ HCT116 MTAP KO” value in the assay with HCT116 MTAP KO cells is on record as 14.17.

For `Cc1ccnc(N(C)N(Cc2ccc(C(F)(F)F)cn2)C(=O)c2ccc3nc(N)c(C)cc3c2)n1` [Example 49, 2-amino-N',3-dimethyl-N'-(4-methylpyrimidin-2-yl)-N-((5-(trifluoromethyl)pyridin-2-yl)methyl)quinoline-6-carbohydrazide], the pIC50 is 5.75 with HCT116-WT cells, 7.10 in the assay with HCT116 MTAP KO cells and 8.66 on PRMT5-MTA (read-out: IC50). Also, the “Selectivity HCT 116-WT/ HCT116 MTAP KO” value with HCT116 MTAP KO cells stood at 22.18.

Turning to `Cc1cc2cc(C(=O)N(Cc3ccc(C(F)(F)F)cn3)N(C)c3nccc4nccnc34)ccc2nc1N` [Example 107, 2-amino-N',3-dimethyl-N'-(pyrido[3,4-b]pyrazin-5-yl)-N-((5-(trifluoromethyl)pyridin-2-yl)methyl)quinoline-6-carbohydrazide], the pIC50 with HCT116-WT cells was 5.79; in the assay with HCT116 MTAP KO cells, 7.34; at PRMT5-MTA (read-out: IC50) it was 8.60. Also, the “Selectivity HCT 116-WT/ HCT116 MTAP KO” value in the assay with HCT116 MTAP KO cells was 35.15.

As to `Cc1cc2cc(C(=O)N(Cc3ccc(C(F)(F)F)cn3)N(C)c3nccc4ccncc34)ccc2nc1N` [Example 266, 2-amino-N',3-dimethyl-N'-(2,7-naphthyridin-1-yl)-N-((5-(trifluoromethyl)pyridin-2-yl)methyl)quinoline-6-carbohydrazide], the results for the pIC50 in the assay on HCT116-WT cells, in the assay on HCT116 MTAP KO cells and on PRMT5-MTA (read-out: IC50) were 5.50, 6.64 and 8.59, respectively. In the assay with HCT116 MTAP KO cells, the “Selectivity HCT 116-WT/ HCT116 MTAP KO” value turned out to be 13.60.

Regarding `CCc1cc2cc(C(=O)N(Cc3ccc(C(F)(F)F)cn3)N(C)c3ncccn3)ccc2nc1N` [Example 305, 2-amino-3-ethyl-N'-methyl-N'-(pyrimidin-2-yl)-iN-((5-(trifluoromethyl)pyridin-2-yl)methyl)quinoline-6-carbohydrazide], the pIC50 in the assay with HCT116-WT cells is 5.78; in the assay with HCT116 MTAP KO cells, 7.07; at PRMT5-MTA (read-out: IC50), 8.64. In addition, the “Selectivity HCT 116-WT/ HCT116 MTAP KO” value with HCT116 MTAP KO cells was 19.60.

With `Cc1cc2nc(N)c3cnn(C)c3c2cc1C(=O)N1CC(C)CN1c1ncc(-c2cnn(C(F)(F)F)c2)cc1F` (centres unmarked) [Example 472, (4-amino-1,7-dimethyl-1H-pyrazolo[4,3-c]quinolin-8-y1)(2-(3-fluoro-5-(1-(trifluor omethyl)-1H-pyrazol-4-yl)pyridin-2-yl)-4-methylpyrazolidin-1-yl)methanone], the negative-log IC50 (pIC50) is 6.01 in the assay on HCT116-WT cells, 7.52 with HCT116 MTAP KO cells and 8.34 on PRMT5-MTA (read-out: IC50). Besides, the “Selectivity HCT 116-WT/ HCT116 MTAP KO” value in the assay on HCT116 MTAP KO cells is recorded as 32.37.

As for `COC1CN(C(=O)c2cc3c(cc2Cl)nc(N)c2cnn(C)c23)N(c2ncc(Br)cc2F)C1` (centres unmarked) [Example 439, (4-amino-7-chloro-1-methyl-1H-pyrazolo [4,3-c]quinolin-8-yl)(2-(5-bromo-3-fluor opyridin-2-yl)-4-methoxypyrazolidin-1-yl)methanone], the pIC50 with HCT116-WT cells was 6.13; with HCT116 MTAP KO cells it was 7.43; on PRMT5-MTA (read-out: IC50), 8.26. The “Selectivity HCT 116-WT/ HCT116 MTAP KO” value in the assay on HCT116 MTAP KO cells worked out at 19.86.

With `Cc1cc2cc(C(=O)N(Cc3ccc(C(F)(F)F)cn3)N(C)c3ncc4ccsc4n3)ccc2nc1N` [Example 92, 2-amino-N',3-dimethyl-N'-(thieno[2,3-d]pyrimidin-2-yl)-N-((5-(trifluoromethyl)pyridin-2-yl)methyl)quinoline-6-carbohydrazide], the values for the pIC50 in the assay with HCT116-WT cells, with HCT116 MTAP KO cells and on PRMT5-MTA (read-out: IC50) were 6.24, 7.72 and 8.68, respectively. Besides, the “Selectivity HCT 116-WT/ HCT116 MTAP KO” value in the assay on HCT116 MTAP KO cells worked out at 29.95.

Regarding `Cc1cc2nc(N)c3cnn(C)c3c2cc1C(=O)N1CC(C)CN1c1ccccc1Cl` (centres unmarked) [Example 382, (4-amino-1,7-dimethyl-1H-pyrazolo[4,3-c]quinolin-8-yl)(2-(2-chlorophenyl)-4-methylpyrazolidin-1-yl)methanone], the pIC50 was 5.81 in the assay with HCT116-WT cells, 6.91 in the assay with HCT116 MTAP KO cells and 8.32 at PRMT5-MTA (read-out: IC50). In the assay with HCT116 MTAP KO cells, the “Selectivity HCT 116-WT/ HCT116 MTAP KO” value is 12.40.

Regarding `CCc1ncsc1-c1ccc(CN(C(=O)c2ccc3nc(N)c(C)cc3c2)N(C)c2ncccn2)nc1` [Example 241, 2-amino-N-((5-(4-ethylthiazol-5-yl)pyridin-2-yl)methyl)-N',3-dimethyl-N'-(pyrimidin-2-yl)quinoline-6-carbohydrazide], the pIC50 was 6.17 with HCT116-WT cells, 7.43 with HCT116 MTAP KO cells and 8.14 on PRMT5-MTA (read-out: IC50). Moreover, the “Selectivity HCT 116-WT/ HCT116 MTAP KO” value in the assay on HCT116 MTAP KO cells was found to be 18.27.
